Test results reported in patent US20030134859A1 (SANKYO COMPANY, LIMITED, priority 2000, published 2003).

Tested on: Mouse preadipocyte strain 3T3-L1
Assay: Inhibition of differentiation as an indication of acetic acid uptake
Assay type: cell-based
Conditions: control (0.01% dimethylsulfoxide) = 100%
Summary of the method: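 Confluent 3T3-L1 cells induced to differentiate for 4 days (insulin, IBMX, dexamethasone, 5% FBS) with test compound at 0.1 μM final or 0.01% DMSO, then 2 days in insulin maintenance medium, at 37 °C, 10% CO2. [2-14C]acetic acid uptake over 1 hr counted by scintillation; expressed as % of DMSO control.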

O=C(Nc1ccc(S(=O)(=O)Nc2cccnc2)cc1)c1cc([N+](=O)[O-])ccc1Cl [Example 178] was tested, and the activity at 0.1 µM (Mus musculus, 3T3-L1, 0.1 μM test substance, read-out: Rate of Uptake (%) of [2-14C] acetic acid) was 66.2%.
For “N-[4-(Pyrrolidinylsulfonyl)phenyl]-(2-chloro-5-nitrophenyl)carboxamide [Example 152]”, the “Rate of Uptake (%) of [2-14C] acetic acid” value (0.1 μM test substance) was 69.6%.
